Assay results from publication PMC9320607, “Synthesis, Biological Evaluation and Docking Studies of Ring-Opened Analogues of Ipomoeassin F” (Molecules, 2022).
Like-named read-outs stand apart in the source and are kept apart here.

Tested on: MDA-MB-231 cells
Assay: Resazurin-based cytotoxicity assay in MDA-MB-231 cells
Assay type: cell-based, human
Settings: for IC50: Homo sapiens
Description: To investigate the impact of ring-opening, we first submitted the open-chain analogue 1 [9] to the National Cancer Institute (NCI) 60-cell line screening (Supplementary Material S1) and determined the cytotoxicity of nine newly synthesized open-chain analogues 4–12 (Figure 2, Supplementary Materials S2 and S3) against MDA-MB-231 cells (Table S1). […] Furthermore, the majority of the nine new open-chain analogues were modestly less cytotoxic towards MDA-MB-231 cells when compared to their direct ring-closed counterparts (analogues 13–21 matching with 4–12; Figures S1 and S2 and Table S1).
The human breast cancer cell line (MDA-MB-231) was maintained in a DMEM high glucose culture medium supplemented with 10% (v/v) fetal bovine serum (FBS) and 2 mM L-glutamine. Parental (Sec61α-WT) HCT-116 (human colorectal cancer cells, ATCC, CCL-247) and mutant (Sec61α-G80W) HCT-116 cells were maintained in McCoy’s 5A (modified) medium ((ThermoFisher, Waltham, MA, USA, 16600-082)) supplemented with 10% (v/v) FBS (Gibco, 10500-064) and 100 units/mL penicillin and […] streptomycin (Gibco, cat: 15140-122). All cell lines were maintained in a 5% CO2 humidified incubator at 37 °C. Cytotoxicity assays were performed in triplicate sets as previously described and viable cells were counted using an automated cell counter (Bio-Rad TC20) immediately before each experiment. Compound stock solutions in DMSO (10 mM) were diluted with supplemented culture media (MDA-MB-231 cells: high glucose DMEM; HCT116 Sec61α-WT and Sec61α-G80W cells: McCoy’s (modified) 5A) to make a series of gradient fresh working solutions at equal DMSO percentage immediately prior to each test. First, […] of cells at a cell density of […] (MDA-MB-231 cells) or 2.5 × 10^4 cells/mL (Sec61α-WT or Sec61α-G80W HCT-116 cells) were seeded in black 96-well microtiter plates (Falcon, product 353219; 2500 cells/well) and incubated at 37° C for 24 h. Subsequently, the cells were treated with either […] of the freshly made gradient working solution in a total volume of […]/well (MDA-MB-231 cells) or 25 mL of freshly made gradient in a total volume of […]/well (Sec61α-WT or Sec61α-G80W HCT-116 cells) at 37 °C for 72 h. For MDA-MB-231 cells, the media were discarded and […] fresh medium containing 10% (v/v) alamarBlue HS cell viability reagent (resazurin stock solution) (ThermoFisher, Waltham, MA, USA, A50100) was added to each well. For Sec61α-WT or Sec61α-G80W HCT-116 cells, the media was not discarded and alamarBlue HS cell viability reagent (resazurin stock solution) (ThermoFisher, Waltham, MA, USA, A50100) was added to 10% (v/v). After that, all cells were incubated at 37 °C for a further 1–3 h and the emission of each well at 620 nm was detected using a Synergy H1 Hybrid multi-mode plate reader (BioTek, Agilent Technologies, Palo Alto, CA, USA) at excitation 580 nm. […] IC50 value estimates were determined using nonlinear regression to fit data to a curve of variable slope (four parameters) using the least-squares fitting method. For HCT-116 cell IC50 curves, the top and bottom plateaus were defined as 100% and 23.70% (the mean of all data at 25 µM across all compounds), respectively.

[1] = MDA-MB-231, MDA-MB-231 cells, at least three independent experiments, read-out: IC50 ± SD, ring-open

| SMILES | IC50 (MDA-MB-231, 72 h, MDA-MB-231 cells, 72 h, read-out: IC50 (cytotoxicity)) [µM] | IC50 [1] [µM] | loss in activity when compared to 1 (MDA-MB-231 cells IC50) |
| --- | --- | --- | --- |
| C#CCOc1ccc(C=CC(=O)OC2C(COC(=O)CCC(=O)CCCC=C)OC(OC3C(OC(CC=C)CCCCC)OC(C)C(OC(C)=O)C3O)C(O)C2OC(=O)C(C)=CC)cc1 (stereo not drawn) [analogue 4] | ~0.168 | 0.168 ± 0.019 | 3–4 fold |
| C=CCCCC(=O)CCC(=O)OCC1OC(OC2C(OC(CC=C)CCCCC)OC(C)C(O)C2O)C(O)C(OC(=O)C(C)=CC)C1OC(=O)C=Cc1ccccc1 (stereo not drawn) [analogue 7] | – | 3.89 | – |
| C=CCCCC(=O)CCC(=O)OCC1OC(OC2C(OC(CC=C)CCCCC)OC(C)C(OC(C)=O)C2O)C(O)C(OC(=O)C(C)=CC)C1OC(=O)c1ccccc1 (stereo not drawn) [analogue 8] | – | 4.61 | – |
| C=CCCCC(=O)CCC(=O)OCC1OC(OC2C(OC(CC=C)CCCCC)OC(C)C(OC(C)=O)C2O)C(O)C(OC(=O)C(C)=CC)C1OC(=O)CCc1ccccc1 (stereo not drawn) [analogue 9] | – | 2.17 | – |
| C=CCCCC(=O)CCC(=O)OCC1OC(OC2C(OC(CC=C)CCCCC)OC(C)C(OC(C)=O)C2O)C(O)C(OC(=O)C(C)=CC)C1OC(=O)C(C)=CC (stereo not drawn) [analogue 10] | – | 2.74 | – |
| C=CCCCC(=O)CCC(=O)OCC1OC(OC2C(OC(CC=C)CCCCC)OC(C)C(OC(C)=O)C2O)C(O)C(O)C1OC(=O)C=Cc1ccccc1 (stereo not drawn) [analogue 11] | – | 6.32 | – |
| C=CCCCC(=O)CCC(=O)OCC1OC(OC2C(OC(CC=C)CCCCC)OC(C)C(OC(C)=O)C2O)C(O)C(OC(=O)C(C)=CC)C1O (stereo not drawn) [analogue 12] | – | 5.6 | – |
